Laboratory results reported in the NIST ThermoML archive (doi:10.1016/j.jct.2013.07.008).

Columns and labels:
[1] = refractive index (Na D-line) (dimensionless); details: 101.33 kPa, Liquid, Standard Abbe refractometry
[2] = for mass density: 101.33 kPa, Buoyancy - hydrostatic balance; for mass density / surface tension liquid-gas: Liquid; for surface tension liquid-gas: Maximal bubble pressure; for Glass transition temperature: DTA

CC(O)C(=O)[O-].CCn1cc[n+](C)c1 [1-ethyl-3-methylimidazolium lactate]
Details | mass density, [2] [kg/m3] | refractive index, [1] | surface tension liquid-gas, [2] [mN/m]
288.15 K | 1192.9 | 1.5026 | 49.5
293.15 K | 1189.8 | 1.5014 | 49.2
303.15 K | 1183.4 | 1.4987 | 48.4
308.15 K | 1180.1 | 1.4977 | 48
313.15 K | 1176.4 | 1.4961 | 47.7
318.15 K | 1173.4 | 1.495 | 47.4
323.15 K | 1170.4 | 1.4936 | 47
328.15 K | 1167.1 | 1.4926 | 46.6
333.15 K | 1163.6 | 1.4913 | 46.3

Details | Glass transition temperature [°C]
[2] | -81.30

CC(O)C(=O)[O-].CCCCCn1cc[n+](C)c1 [1-pentyl-3-methylimidazolium lactate]
Details | mass density, [2] [kg/m3] | refractive index, [1] | surface tension liquid-gas, [2] [mN/m]
288.15 K | 1112.6 | 1.494 | 43.1
293.15 K | 1109 | 1.4928 | 42.7
303.15 K | 1102.7 | 1.4901 | 42
308.15 K | 1099.4 | 1.4891 | 41.5
313.15 K | 1095.3 | 1.4875 | 41.2
318.15 K | 1092.9 | 1.4864 | 40.9
323.15 K | 1089.9 | 1.485 | 40.5
328.15 K | 1086.4 | 1.4841 | 40.1
333.15 K | 1083.3 | 1.4827 | 39.8

Details | Glass transition temperature [°C]
[2] | -78.20
